From PubChem BioAssay AID1552 (Sanford-Burnham Center for Chemical Genomics, 2009)
Calls of active or inactive are those of the source. No rule for the calls is given here.

The compounds below were run against Ubiquitin-conjugating enzyme E2 N (Homo sapiens) (UniProt P61088) (assay: NMR detection of UBE2N ligand binding – biophysical, purified protein (AID 1552)). Conditions: NMR binding to purified UBE2N.
Sequence of Ubiquitin-conjugating enzyme E2 N (Homo sapiens) (P61088 whole entry, looked up): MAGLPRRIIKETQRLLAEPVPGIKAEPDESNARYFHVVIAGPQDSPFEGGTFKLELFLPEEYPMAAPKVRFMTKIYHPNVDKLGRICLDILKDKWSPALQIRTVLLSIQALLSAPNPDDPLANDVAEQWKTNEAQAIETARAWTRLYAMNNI

| Structure (SMILES) | Kd |
| --- | --- |
| N[C@@H](CCC(=O)N[C@@H](CS)C(=O)NCC(=O)O)C(=O)O | > 4 mM (inactive) |
| Cc1nc2c(n1O)CCc1c-2no[n+]1[O-] | > 4 mM (inactive) |
| CC(=O)NN1C(=O)/C(=C\c2ccc(O)cc2)SC1=S | > 4 mM (inactive) |
| O=C(Nc1ccc(N2CCOCC2)cc1)c1cnsn1 | > 4 mM (inactive) |
| c1coc(CNc2nc(-c3ccncc3)cs2)c1 | > 4 mM (inactive) |
| COc1ccc(C2NC(C(=O)O)CS2)cc1 (centres undefined) | > 4 mM (inactive) |
| CSc1nc(O)cc(=O)[nH]1 | > 4 mM (inactive) |
| N=c1c2c3c(sc2ncn1N)CCCC3 | > 4 mM (inactive) |
| CCC(=O)OC1[C@@H]2CC3=C4CC(=O)O[C@@H](c5ccoc5)[C@]4(C)CCC3C(C)(C2=O)[C@@H](CC(=O)OC)C1(C)C (some centres undefined) | > 4 mM (inactive) |
| O=S(=O)(O)c1cc[n+]([O-])cc1 | > 4 mM (inactive) |
| c1ccc(CSc2ncccn2)cc1 | > 4 mM (inactive) |
| Cc1ccc(SCC(=O)N2CCOCC2)cc1 | > 4 mM (inactive) |
| Cc1ccccc1NC(=O)CC1NCCNC1=O (centres undefined) | > 4 mM (inactive) |
| Cc1cccc(C)c1N1C(=O)CCC1=O | > 4 mM (inactive) |
| Cc1cc(C(=O)N2CCN(S(C)(=O)=O)CC2)cs1 | > 4 mM (inactive) |
| CC(=O)Nc1ccc(-c2cn3ccsc3n2)cc1 | > 4 mM (inactive) |
| O=C1c2ccccc2C(=O)N1Cc1ccco1 | > 4 mM (inactive) |
| CN1CCC(NC(=O)c2ccccc2[N+](=O)[O-])CC1 | > 4 mM (inactive) |
| Cc1cc(C)n(-c2ccc(N)cc2)n1 | > 4 mM (inactive) |
| COc1cc(OC)c2c(=O)c(OC)c(-c3ccc(OC)c(OC)c3)oc2c1 | > 4 mM (inactive) |
| OC[C@@H]1CCCN2CCCC[C@H]12 | > 4 mM (inactive) |
| Cc1cc(=O)n2[nH]c(COc3ccccc3)nc2n1 | > 4 mM (inactive) |
| COc1ccccc1NC(=O)c1cc[n+]([O-])cc1 | > 4 mM (inactive) |
| COc1ccc2c(=O)c(OC)c(-c3ccccc3)oc2c1 | > 4 mM (inactive) |

| Structure (SMILES) | Kd |
| --- | --- |
| CN(C)C(=S)Nc1ccccc1N1CCOCC1 | > 4 mM (inactive) |
| O=C(O)c1ccc2ccccc2n1 | > 4 mM (inactive) |
| Cc1cc(-c2ccccc2)nc2cc(C(N)=O)nn12 | > 4 mM (inactive) |
| NC(=O)CSc1nc2ccccc2c(=O)[nH]1 | > 4 mM (inactive) |
| COc1ccc(CC(=O)c2ccc(O)cc2O)cc1 | > 4 mM (inactive) |
| Oc1ccc(C(=S)N2CCOCC2)cc1 | > 4 mM (inactive) |
| Cc1nn2c(-c3ccncc3)nnc2c2ccccc12 | > 4 mM (inactive) |
| CC1SC(=NC(=O)c2ccco2)NC1=O (centres undefined) | > 4 mM (inactive) |
| CC1CC[C@@]2(OC1)O[C@H]1CC3C4CC[C@@H]5C[C@@H](O)CC[C@]5(C)C4CC[C@]3(C)[C@H]1[C@@H]2C (some centres undefined) | > 4 mM (inactive) |
| Cc1nc(-c2ccccc2)ncc1C(=O)O | > 4 mM (inactive) |
| Cc1ccc(C(=O)NCCO)c(Cl)c1 | > 4 mM (inactive) |
| Cc1ccc(NC(=O)/C=C2\SC(=O)NC2=O)cc1 | > 4 mM (inactive) |
| COc1cc2c(cc1OC)-c1nnnn1C(C)(C)C2 | > 4 mM (inactive) |
| O=C(O)c1ccc(-n2cccc2)cc1 | > 4 mM (inactive) |
| O=C(Nc1nnc(-c2ccccc2Cl)o1)c1ccco1 | > 4 mM (inactive) |
| Cc1cc([N+](=O)[O-])cc[n+]1[O-] | > 4 mM (inactive) |
| OCC12COC3c4ccccc4C(OC1)N32 (centres undefined) | > 4 mM (inactive) |
| Cc1cccc(-n2c(N)cc(=O)[nH]c2=S)c1C | > 4 mM (inactive) |
| Cc1ccc(-c2c(C)n([O-])c3c([n+]2=O)CCCC3)o1 | > 4 mM (inactive) |
| Cc1ccc(O)c(NC(=O)c2ccco2)c1 | > 4 mM (inactive) |
| CC(C)CC(=O)NC1CCSC1=O (centres undefined) | > 4 mM (inactive) |
| Cc1nc(SCC(=O)c2c[nH]c3ccccc23)n[nH]1 | > 4 mM (inactive) |
| O=C(O)c1ccc(CSc2ncn[nH]2)cc1 | > 4 mM (inactive) |
| CC(=O)c1c(O)cc(O)cc1O | > 4 mM (inactive) |

| Structure (SMILES) | Kd |
| --- | --- |
| Cc1ccc(S(C)(=O)=O)s1 | > 4 mM (inactive) |
| CCOC(=O)c1csc(N)n1 | > 4 mM (inactive) |
| CC1(C)SCC(C(=O)O)N1C=O (centres undefined) | > 4 mM (inactive) |
| O=C(NC1=NCCS1)c1ccc2snnc2c1 | > 4 mM (inactive) |
| O=C(O)CCc1ccc2c(c1)OCO2 | > 4 mM (inactive) |
| O=C(O)CCCN1CNC(=S)NC1 | > 4 mM (inactive) |
| CC1(C)C(=O)C=C[C@@]2(C)C1C[C@@H](O)[C@]1(C)C2CC[C@@]2(C)[C@H](c3ccoc3)OC(=O)[C@H]3O[C@]321 (some centres undefined) | > 4 mM (inactive) |
| COC(=O)[C@@]1(C)CCC[C@]2(C)c3ccc(O)c(C(C)C)c3CCC12 (some centres undefined) | > 4 mM (inactive) |
| NC(=O)C1CCN(Cc2ccccc2)CC1 | > 4 mM (inactive) |
| COc1cc(CNC(=O)CCCC/C=C/C(C)C)ccc1O | > 4 mM (inactive) |
| CCOc1ccc(Cl)cc1S(=O)(=O)N1CCCC1 | > 4 mM (inactive) |
| Cc1cc[n+](-c2nc([O-])sc2C=O)cc1 | > 4 mM (inactive) |
| O=P1(O)c2ccccc2Nc2ccccc21 | > 4 mM (inactive) |
| COCc1c(CN)cnc(C)c1N | > 4 mM (inactive) |
| CN1CCC(N2CCN(C)CC2)CC1 | > 4 mM (inactive) |
| O=C1CSC(=Nc2ccc(O)cc2)N1 | > 4 mM (inactive) |
| CNC(=O)c1cccc(NC(=S)NC)c1 | > 4 mM (inactive) |
| Nc1ccc2c(C(F)(F)F)cc(=O)oc2c1 | > 4 mM (inactive) |
| OC1CCN(C(=S)NC2CC2)CC1 | > 4 mM (inactive) |
| NC(=O)CSc1nc2ncnc(N)c2[nH]1 | > 4 mM (inactive) |
| COc1cc(O)c(C)c(O)c1 | > 4 mM (inactive) |
| C/C(=N\NC(N)=S)C(=O)O | > 4 mM (inactive) |
| C=CCn1c(=S)[nH]c2ccc(Br)cc2c1=O | > 4 mM (inactive) |
| O=C1NC(=Nc2ccccc2)S/C1=C/c1cccnc1 | > 4 mM (inactive) |

| Structure (SMILES) | Kd |
| --- | --- |
| CC(C)(C)C(=O)N1CCCC1C(=O)O (centres undefined) | > 4 mM (inactive) |
| Nc1nc2ncc(=O)[nH]c2c(=O)[nH]1 | > 4 mM (inactive) |
| O=C(O)CCn1cncn1 | > 4 mM (inactive) |
| Cc1ccc(N)nc1 | > 4 mM (inactive) |
| O=C(O)c1cn(-c2ccccc2)nc1-c1cccnc1 | > 4 mM (inactive) |
| O=C(O)c1coc2c1C(=O)CCC2 | > 4 mM (inactive) |
| O=C(O)c1ccc(-n2cccn2)cc1 | > 4 mM (inactive) |
| Cc1cccc(C)c1NC(=O)/C=C/C(=O)O | > 4 mM (inactive) |
| CC1Cc2nc(SCC(N)=O)n(C)c(=O)c2S1 (centres undefined) | > 4 mM (inactive) |
| CC1CN(C(=O)c2ccncc2)CC(C)O1 (centres undefined) | > 4 mM (inactive) |
| O=[n+]1c(CO)c(CO)n([O-])c2ccccc21 | > 4 mM (inactive) |
| COc1ccc(/C=C2/C(=O)N=C(N)N2C)cc1OC | > 4 mM (inactive) |
| Cc1n[nH]c(=S)n(/N=C/c2cccs2)c1=O | > 4 mM (inactive) |
| Cc1nc2sc3c(c2c(=N)n1N)CC(C)(C)OC3 | > 4 mM (inactive) |
| NC(=O)c1oc2ccccc2c1N | > 4 mM (inactive) |
| N#Cc1cnn(Cc2ccc(Cl)cc2)c1N | > 4 mM (inactive) |
| N=C1/C(=C\c2ccccc2)C(=O)N=C2SC=NN12 | > 4 mM (inactive) |
| Nc1nnc(COc2cccc(C(F)(F)F)c2)s1 | > 4 mM (inactive) |
| O=S1(=O)CCC2CC=CCC21 (centres undefined) | > 4 mM (inactive) |
| CCC(/C=C/[C@@H](C)[C@H]1CCC2C3CC=C4C[C@@H](O)CC[C@]4(C)C3CC[C@@]21C)C(C)C (some centres undefined) | > 4 mM (inactive) |
| CSc1ccc2nnc(-c3cccnc3)n2n1 | > 4 mM (inactive) |
| Cn1cnc2ccc([N+](=O)[O-])cc2c1=O | > 4 mM (inactive) |
| CSc1nsc(SCc2cnc(C)nc2N)n1 | > 4 mM (inactive) |
| CC(=O)O[C@@H]1CC2C(C)(C)[C@H](O)C[C@H](O)[C@]2(C)C2CC[C@@]3(C)C(=CC(=O)O[C@H]3c3ccoc3)[C@@]21C (some centres undefined) | > 4 mM (inactive) |

| Structure (SMILES) | Kd |
| --- | --- |
| CC(=O)O[C@@H]1CC2C(C)(C)C(=O)[C@@H]3O[C@@H]3[C@]2(C)C2CC[C@]3(C)C(=CC(=O)O[C@H]3c3ccoc3)[C@@]21C (some centres undefined) | > 4 mM (inactive) |
| NCc1ccc(-c2cccs2)cc1 | > 4 mM (inactive) |
| CC(=O)Nc1ccc(NC(=O)c2ccncc2)cc1 | > 4 mM (inactive) |
| O=C(O)c1cccc(N2C(=O)C3CC=CCC3C2=O)c1 (centres undefined) | > 4 mM (inactive) |
| Cc1ccc2nc(SCC(=O)O)nc(C)c2c1 | > 4 mM (inactive) |
| Cc1occc(=O)c1O | > 4 mM (inactive) |
| COC(=O)C1=C(C)N(c2cccc(C(C)=O)c2)C(=O)C1 | > 4 mM (inactive) |
| CC(C)=CC1C(C(=O)O)C1(C)C (centres undefined) | > 4 mM (inactive) |
| CC(CC(=O)O)n1cccn1 (centres undefined) | > 4 mM (inactive) |
| Nc1cc(=O)[nH]c(SCC(=O)NC2CCCCC2)n1 | > 4 mM (inactive) |
| CCN(CC)S(=O)(=O)c1cccc2nsnc12 | > 4 mM (inactive) |
| CC(C)=CCOc1c2occc2cc2ccc(=O)oc12 | > 4 mM (inactive) |
| COc1ccc(NC2=NCC(C)S2)cc1 (centres undefined) | > 4 mM (inactive) |
| CC(=O)OC/C=C(\C)CC/C=C(\C)CC/C=C(\C)CC/C=C(\C)CC/C=C(\C)CC/C=C(\C)CC/C=C(\C)CC/C=C(\C)CCC=C(C)C | > 4 mM (inactive) |
| c1ccc(CCN2CCN(CCc3ccccn3)CC2)nc1 | > 4 mM (inactive) |
| Cc1cc(Oc2ccccc2)nc(N)n1 | > 4 mM (inactive) |
| CN(C)c1oc(-c2ccccc2Cl)nc1C#N | > 4 mM (inactive) |
| Cn1cccc1C=C1C(=O)NC(=S)NC1=O | > 4 mM (inactive) |
| NC1=NCc2ccccc21 | > 4 mM (inactive) |
| COc1c(OC)c2occc2c2oc(=O)ccc12 | > 4 mM (inactive) |
| O=C(O)CCC(=O)c1c[nH]c2ccccc12 | > 4 mM (inactive) |
| O=C(O[C@@H]1Cc2c(O)cc(O)cc2O[C@@H]1c1cc(=O)c(O)c2c(O)c(O)cc([C@H]3Oc4cc(O)cc(O)c4C[C@H]3O)c2c1)c1cc(O)c(O)c(O)c1 | > 4 mM (inactive) |
| Cc1ccccc1-n1c(N)cc(=O)[nH]c1=S | > 4 mM (inactive) |
